Results on 8 compounds are retold here after ChEMBL document CHEMBL1201862, “PubChem BioAssay data set” (2004).

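How tested: cells in 96-well plates exposed to compound for 48 hours at five concentrations. The concentration for 50% growth inhibition is given as GI50.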 The source made the active and inactive calls. No stated cut-off is given here; in the data, active = GI50 up to about 1.1 µM and inactive = higher.

Holding throughout (experiment): NCI anticancer screen, dose series, 48 h
Test [1] has as its system SR.
Test [2] has as its system NCI-H460.
Test [3] concerns T47D.
The subject of test [4] is UACC-62.
The test system of test [5] is HT-29.
Test [6] deals with 786-0.
For test [7], the system named is U-251.
Test [8] concerns M14.
In test [9] the test system is K562.
The test system of test [10] is RXF 393.
Test [11] deals with ACHN.
The test system of test [12] is NCI/ADR-RES.
Test [13] concerns OVCAR-5.
Test [14] relates to SK-MEL-28.
Test [15] concerns A498.
The test system of test [16] is HCC 2998.
In test [17] the test system is COLO 205.
Test [18] relates to MCF7.
In test [19] the test system is SNB-75.

`Nc1nc(-c2cc(-c3cccc4ccccc34)nc(N)n2)cc(-c2cccc3ccccc23)n1`: the GI50 in test [1], in [2], in [3], in test [4], in test [5] and in test [6] was > 100 µM (inactive) in each case. Besides, the GI50 in test [7], in test [8], in test [9], in test [10], in test [11] and in test [12] was > 100 µM (inactive) in each case. The GI50 in test [13], in test [14], in test [15], in test [16], in test [17] and in [18] was > 100 µM (inactive) throughout.

For the compound `COC(=O)[C@H](Cc1ccccc1)NP(=O)(O)OCC1OC(n2cc(C)c(=O)[nH]c2=O)CC1N=[N+]=[N-]` (some centres not stated), the GI50 in test [1], in [2], in test [3], in [19], in test [5] and in test [6] was > 100 µM (inactive) in each case. In addition, the GI50 in test [7], in test [8], in [9], in test [10], in [11] and in test [12] was > 100 µM (inactive) each time. For the same compound, the GI50 in test [13], in [14], in test [15], in [16], in test [17] and in [18] was > 100 µM (inactive) throughout.

Regarding `CCCC[Si](CCCC)(CCCC)O[C@@H](/C=C/C(=O)OCC)[C@H](Cc1ccccc1)O[Si](CCCC)(CCCC)CCCC`, the GI50 in [1], in test [2], in [3], in [4], in [19] and in test [5] was > 100 µM (inactive) in each case. Further, the GI50 in test [6], in [7], in test [9], in test [10], in [11] and in test [12] was > 100 µM (inactive) throughout. Moreover, the GI50 in test [13], in [15], in test [16], in [17] and in test [18] was > 100 µM (inactive) each time.

Regarding `CC1OC(OC2C(Oc3cc(O)c4c(c3)O[C@H](c3ccc(O)cc3)CC4=O)OC(CO)C(O)C2O)C(O)C(O)C1O` (some centres not stated), the GI50 in test [1], in test [3], in test [4], in [19], in [5] and in [6] was > 100 µM (inactive) in each case. Moreover, the GI50 in [7], in test [8], in [10], in test [11], in test [12] and in test [13] was > 100 µM (inactive) each time. Moreover, the GI50 in test [14], in test [15], in test [16], in test [17] and in [18] was > 100 µM (inactive) in each case.

Take `Nc1nc(N)c(N=O)c(Nc2ccc(O)cc2)n1`: the GI50 in test [1] was 14.8 µM (inactive); in test [2] it was > 61.1 µM (inactive); in test [3], 14.9 µM (inactive); in [4] it was 41 µM (inactive); in test [19], 18.2 µM (inactive); in test [5], 18 µM (inactive). Besides, the GI50 in test [6] is > 55.7 µM (inactive); in [7], > 52 µM (inactive); in test [8] it was 6.05 µM (inactive); in test [9] it was > 45.6 µM (inactive); in [10], 93.3 µM (inactive); in [11] it was 46.2 µM (inactive). The GI50 in [12] was 1.58 µM (inactive); in test [14], 11.5 µM (inactive); in test [15] it was > 55.8 µM (inactive); in test [16], 72.3 µM (inactive); in [17], 57.5 µM (inactive); in [18], 5.97 µM (inactive).

In the case of `CC[C@@]1(O)C(=O)OCc2c1cc1n(c2=O)Cc2c-1nc1ccccc1c2/C=N\NC(=O)C(C)N` (some centres not stated), the GI50 in test [1] is < 0.01 µM (active); in [2] it was < 0.0243 µM (active); in [3], < 0.0157 µM (active); in test [4], < 0.01 µM (active); in [19], < 0.0298 µM (active); in test [5], 1.63 µM (inactive). In addition, the GI50 was 0.069 µM (active) in [6]; < 0.0195 µM (active) in [7]; 0.254 µM (active) in test [8]; 1.04 µM (active) in test [10]; < 0.0216 µM (active) in test [11]; 0.241 µM (active) in [12]. In addition, the GI50 in [13] was 6.71 µM (inactive); in test [14], 17.8 µM (inactive); in [15], 0.111 µM (active); in test [16], 0.332 µM (active); in test [17], 7.11 µM (inactive); in test [18], < 0.022 µM (active).

As for `N/N=C(\C(=O)Nc1ccc([N+](=O)[O-])cc1)C(C1=Nc2cc([N+](=O)[O-])ccc2NC1)[N+](=O)[O-]` (configuration not stated), the GI50 is > 100 µM (inactive) in test [1]; 42.2 µM (inactive) in [2]; 75.7 µM (inactive) in test [3]; > 100 µM (inactive) in test [4]; > 100 µM (inactive) in test [19]; 72.4 µM (inactive) in [5]. The GI50 in test [6] was > 100 µM (inactive); in test [7] it was > 100 µM (inactive); in test [8], > 100 µM (inactive); in [9], > 100 µM (inactive); in test [10], > 100 µM (inactive); in test [11], 43.1 µM (inactive). For the same compound, the GI50 in test [12] is > 100 µM (inactive); in test [13], > 100 µM (inactive); in test [14] it was > 100 µM (inactive); in test [15], > 100 µM (inactive); in test [16], > 100 µM (inactive); in test [18] it was 44.3 µM (inactive).

In the case of `S=C(NN=C1NCCCN1)Nc1ccccc1`, the GI50 is 63.1 µM (inactive) in [1]; > 100 µM (inactive) in test [2]; > 100 µM (inactive) in test [3]; > 100 µM (inactive) in [4]; > 100 µM (inactive) in [19]; > 100 µM (inactive) in test [5]. Besides, the GI50 is > 100 µM (inactive) in test [6]; > 100 µM (inactive) in test [7]; 99.5 µM (inactive) in [9]; > 100 µM (inactive) in [10]; > 100 µM (inactive) in test [11]; > 100 µM (inactive) in test [12]. For the same compound, the GI50 in test [13], in [14], in test [15], in test [16], in [17] and in test [18] was > 100 µM (inactive) throughout.
